For this data set the following is noted: Crystal 2; DTA.

± gives the expanded uncertainty stated by the source.

Take `[Br-].[Na+]` [sodium bromide]: the Triple point temperature is on record as 1114 ± 3 K.

The values above are taken from the NIST ThermoML archive (doi:10.1016/j.tca.2004.12.012).
